Measurements taken from patent US6815421B1, “Polypeptides for use in ameliorating effects of aging in mammals” (Osteopharm Inc., priority 2001, dated 2004).

Experiment: Body weight and DEXA body composition in aging intact and ovariectomized rats treated with polypeptide
Format: in vivo, female Sprague-Dawley rats
Details: for increase in bone mineral content / increase in body fat content: DEXA
Protocol: Experiments were conducted using female Sprague-Dawley rats that were about 5 months old at the beginning of the experiments. The rats were obtained from Vivarium of the University of Toronto, Mississauga, Ontario, Canada.
The rats were housed in pairs in either a standard shoebox cage 15 cm in height (low cage) or a cage with 22 cm height (tall cage). Humidity was maintained at 50%; temperature 22° C.; dark/light cycle of 12 hours. The rats were fed Standard Purina Rat Chow (unlimited daily supply) and tap water ad libitum.
Ovariectomies were performed under general isofluorane anaesthesia. A 1.5 cm dorsal midline incision was made. The skin and subcutaneous tissue were separated by blunt dissection. A small incision was made on either side in the posterior abdominal muscle wall (approximately 0.5 cm) to expose the ovaries. The ovaries were removed together with the proximal ends of the Fallopian tubes after the ligation of the ovarian arteries. The wounds in the abdominal muscle wall were not stitched. The dorsal skin wound was closed by three surgical wound clips. Tamgesic (0.2 ml) was given subcutaneously for the relief of pain immediately after the operation.
Body weight measurements were made by direct weighing with an electronic balance (to 0.01 g) and by DEXA measurement, Instrument: Hologic 4500A with program for regional measurement for small animals. The animals were scanned supine under general isofluorane anaesthesia. The whole body was scanned including the whole tail. The weights for the mineral content, the fat content and the lean body mass were summed to obtain total body weight.
Non-treated (control) animals were injected subcutaneously daily with 400 μL of 20 mM sodium acetate (pH 4.5) 5 days per week. Treated animals were injected subcutaneously with 300 nmoles per kg of body weight of the test polypeptide (SEQ ID NO:1) in 400 μL of 20 mM sodium acetate (pH 4.5) daily five days per week. The treatment period was nine months. The material, chemically synthesized, was obtained from the Protein DNA Core facility of Queen's University, Kingston, Ontario, Canada. Purification, by HPLC, indicated the test compound to be at least 95% pure.
DEXA measurements were evaluated as an indication of body composition. Through the attenuation of X-ray energy DEXA measurements provide an indication of the mass of various body tissues. In the Hologic DEXA instrument, the program measures the mass of bone tissue, fat and lean body mass (largely muscle mass). The sum of these measured masses represents total body mass. If this proposition is correct, then the total body mass measured by DEXA and measured directly by balance will be the same. Over the course of these experiments, 677 paired measurements of the body weight were made using the two methods. The results obtained (FIG. 1) indicate that there is a close relationship between the DEXA measurements and the measurements. It was thus concluded that body composition could be assessed using DEXA measurements.
Eight groups of rats were treated as follows:
Ovariectomies were performed at the age of 5 months. The ovariectomized animals were allowed to lose bone for two months following ovariectomy before the treatment began. A baseline measurement was made immediately prior to operation. Another pretreatment baseline measurement was made at the beginning of treatment, i.e. two months after ovariectomization. Measurements were made approximately monthly thereafter. At the end of the experiments, all animals were sacrificed by carbon dioxide narcosis.
Procedures were carried out according to the following schedule: […]

Substance: Xaa1-Thr-GIn-Glu-His-Thr-Ala-Glu-Cys-Xaa10, where Xaa1 is N-acetyl arginine and Xaa10 is lysinamide (Ac-RTQEHTAECK-NH2) [SEQ ID NO:1, 10-mer, protected at both ends]
- change in lean body mass (all groups of rats (intact and ovariectomized, treated and untreated), 10-month experimental period, FIGS. 6A to 7B): relatively small change
- increase in bone mineral content (intact rats, FIG. 8): attenuation of the increase
- increase in body fat content (intact rats, vs untreated (control) rats, reduction greatest in tall cages, FIG. 4): reduced
- age-related gain in total body weight (intact rats, tall and low cages, 300 nmoles per kg s.c. daily five days per week, vs untreated, FIG. 2): lower age-related gain
- change in BMC/BW ratio with time (intact rats, tall and low cages, vs untreated, FIGS. 10 and 11): changed much less
- change in LBM/BW ratio with time (intact rats, tall and low cages, vs untreated, FIGS. 14 and 15): changed much less
- attenuating effect on change in LBM/BW ratio over time (ovariectomized rats compared with intact rats, FIGS. 14 to 17): greater for intact rats than it was for ovariectomized rats
- increase in body fat content (ovariectomized rats housed in low cages, FIG. 5): less so
- increase in body fat content (ovariectomized rats housed in taller cages, FIG. 5): significantly smaller increase
- increase in bone mineral content (ovariectomized rats, FIG. 9): attenuation of the increase
- overall weight gain (ovariectomized rats, tall and low cages, 300 nmoles per kg s.c. daily five days per week, vs untreated, FIG. 3): relative decrease in overall weight gain
- attenuating effect on decrease in BMC/BW ratio with time (ovariectomized rats, tall and low cages, compared with intact rats, FIGS. 12 and 13): less pronounced
